Measurements from patent US9765067B2, “Thiophen-2-yl-pyridin-2-yl-1H-pyrazole-4-carboxylic acid derivatives and the use thereof as soluble guanylate cyclase activators” (Novartis AG, priority 2014, dated 2017).

Each compound was assayed against T1, soluble guanylate cyclase (human GUCYA3/GUCYB3) overexpressed in CHO cells (Homo sapiens, UniProt Q02108+Q02153) (assay: CHO cellular assay (cGMP production, HTRF)). Settings: CHO K1 clone 8E10 overexpressing human sGC, Cisbio HTRF, 1 h room temperature, 1 mM IBMX, 20 uM ODQ, minimum quantification limit 0.5 nM.
T1 construct: expressed in transfected cells
T1 sequence (Q02108 1-690 partner): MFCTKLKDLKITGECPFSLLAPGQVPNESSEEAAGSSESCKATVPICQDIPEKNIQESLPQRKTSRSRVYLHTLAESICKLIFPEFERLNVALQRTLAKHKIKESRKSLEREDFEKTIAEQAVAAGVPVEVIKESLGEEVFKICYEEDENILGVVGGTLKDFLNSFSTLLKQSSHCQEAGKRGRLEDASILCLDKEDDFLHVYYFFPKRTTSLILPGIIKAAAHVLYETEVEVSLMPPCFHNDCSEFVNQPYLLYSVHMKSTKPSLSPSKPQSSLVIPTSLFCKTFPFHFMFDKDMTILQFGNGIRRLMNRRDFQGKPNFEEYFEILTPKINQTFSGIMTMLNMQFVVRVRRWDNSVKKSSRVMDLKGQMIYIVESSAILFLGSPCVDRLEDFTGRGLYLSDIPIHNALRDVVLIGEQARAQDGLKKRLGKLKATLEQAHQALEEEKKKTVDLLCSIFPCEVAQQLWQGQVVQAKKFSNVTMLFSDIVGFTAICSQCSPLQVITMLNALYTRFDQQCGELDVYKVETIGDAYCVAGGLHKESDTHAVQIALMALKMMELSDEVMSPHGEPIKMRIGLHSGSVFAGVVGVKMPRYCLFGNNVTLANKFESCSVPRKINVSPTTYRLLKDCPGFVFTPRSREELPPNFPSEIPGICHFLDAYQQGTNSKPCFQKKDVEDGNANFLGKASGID
T1 sequence (Q02153 1-619): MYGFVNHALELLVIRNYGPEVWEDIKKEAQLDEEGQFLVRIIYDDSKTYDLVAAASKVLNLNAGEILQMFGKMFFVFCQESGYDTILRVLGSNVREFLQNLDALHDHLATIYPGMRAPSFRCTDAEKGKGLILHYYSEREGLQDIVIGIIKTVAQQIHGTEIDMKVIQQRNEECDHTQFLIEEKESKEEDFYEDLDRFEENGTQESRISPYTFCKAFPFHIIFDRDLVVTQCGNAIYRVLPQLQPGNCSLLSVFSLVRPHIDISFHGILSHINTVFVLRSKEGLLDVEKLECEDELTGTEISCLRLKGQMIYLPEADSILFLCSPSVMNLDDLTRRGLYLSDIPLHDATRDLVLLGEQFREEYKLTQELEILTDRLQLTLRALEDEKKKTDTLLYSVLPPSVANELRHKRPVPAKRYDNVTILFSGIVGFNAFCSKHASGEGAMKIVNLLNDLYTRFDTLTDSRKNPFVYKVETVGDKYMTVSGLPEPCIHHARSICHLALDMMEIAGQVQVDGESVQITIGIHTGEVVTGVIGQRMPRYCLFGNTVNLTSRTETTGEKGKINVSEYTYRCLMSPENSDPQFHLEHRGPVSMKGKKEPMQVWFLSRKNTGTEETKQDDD
Type: cell-based
From the text: Chinese hamster ovary (CHO) cells overexpressing soluble guanylate cyclase were generated to test the effect of sGC activators in a cellular context. Human cDNAs for GUCYA3 (RefSeq: NM_000856.3) and GUCYB3 (RefSeq: NM_000857.1) were amplified by PCR from a HUVEC (Human Umbilical Vein Endothelial Cells) cDNA library and cloned into mammalian expression vectors. CHO K1 cells (ATCC CCL-61) were transfected using Lipofectamine 2000 following manufacturer's instructions and stably expressing clones were identified by antibiotic selection. CHO GUCY clone 8E10 was used for subsequent experiments.
Cells were seeded at a density of 3000 cells/well in white 384-well proxyplates (Perkin Elmer) and incubated overnight, then the medium was removed and cells were washed with assay buffer (HBSS, 0.1% BSA, 1 mM IBMX, 20 uM ODQ). sGC activators were serially diluted in DMSO, then diluted in assay buffer prior to adding to cells (10 ul/well, final DMSO concentration 0.5%). Cells were incubated with compounds for 1 h room temperature, then assayed for cGMP production using Cisbio cGMP HTRF kit (62GM2PEC) according to manufacturer's instructions.
The EC50s are calculated based on the amount of cGMP interpolated from the standard curve, using a 4-parameter sigmoidal dose-response.

Row | SMILES | EC50
1 | Cc1cc(C2CCN(C(=O)C3CCNC3)CC2)ccc1OCc1ccsc1-c1cccc(-n2ncc(C(=O)O)c2C(F)(F)F)n1 (racemic) [Example 42, (±)-1-(6-(3-((2-Methyl-4-(1-(pyrrolidine-3-carbonyl)piperidin-4-yl)phenoxy)methyl)thiophen-2-yl)pyridin-2-yl)-5-(trifluoromethyl)-1H-pyrazole-4-carboxylic acid] | 620 nM
2 | CCc1cc(OCc2cc(C)sc2-c2cccc(-n3ncc(C(=O)O)c3C(F)(F)F)n2)ccc1C1CCN(C(=O)C(O)CO)CC1 (racemic) [Example 44, (±)-1-(6-(3-((4-(1-(2,3-Ddihydroxypropanoyl)piperidin-4-yl)-3-ethylphenoxy)methyl)-5-methylthiophen-2-yl)pyridin-2-yl)-5-(trifluoromethyl)-1H-pyrazole-4-carboxylic acid] | 130 nM
3 | CCC(=O)N1CCC(c2ccc(OCc3ccsc3-c3cccc(-n4ncc(C(=O)O)c4C(F)(F)F)n3)cc2)CC1 [Example 1, 1-(6-(3-((4-(1-Propionylpiperidin-4-yl)phenoxy)methyl)thiophen-2-yl)pyridin-2-yl)-5-(trifluoromethyl)-1H-pyrazole-4-carboxylic acid] | 24 nM
4 | CCC(=O)N1CCC(c2ccc(OCc3c(C(F)(F)F)csc3-c3cccc(-n4ncc(C(=O)O)c4C(F)(F)F)n3)cc2)CC1 [Example 2-1, 1-(6-(3-((4-(1-Propionylpiperidin-4-yl)phenoxy)methyl)-4-(trifluoromethyl)thiophen-2-yl)pyridin-2-yl)-5-(trifluoromethyl)-1H-pyrazole-4-carboxylic acid] | 2.8 nM
5 | COC(=O)N1CCC(c2ccc(OCc3ccsc3-c3cccc(-n4ncc(C(=O)O)c4C(F)(F)F)n3)cc2)CC1 [Example 2-2, 1-(6-(3-((4-(1-(Methoxycarbonyl)piperidin-4-yl)phenoxy)methyl)thiophen-2-yl)pyridin-2-yl)-5-(trifluoromethyl)-1H-pyrazole-4-carboxylic acid] | 32 nM
6 | O=C(O)c1cnn(-c2cccc(-c3sccc3COc3ccc(C4CCN(C(=O)C5CC5)CC4)cc3)n2)c1C(F)(F)F [Example 2-3, 1-(6-(3-((4-(1-(Cyclopropanecarbonyl)piperidin-4-yl)phenoxy)methyl)thiophen-2-yl)pyridin-2-yl)-5-(trifluoromethyl)-1H-pyrazole-4-carboxylic acid] | 2.8 nM
7 | CCC(=O)N1CCC(c2ccc(OCc3c(C(F)(F)F)csc3-c3cccc(-n4ncc(C(=O)O)c4C(F)(F)F)n3)c(C)c2)CC1 [Example 2-4, 1-(6-(3-((2-Methyl-4-(1-propionylpiperidin-4-yl)phenoxy)methyl)-4-(trifluoromethyl)thiophen-2-yl)pyridin-2-yl)-5-(trifluoromethyl)-1H-pyrazole-4-carboxylic acid] | ≤ 0.5 nM
8 | CCC(=O)N1CCC(c2ccc(OCc3ccsc3-c3cccc(-n4ncc(C(=O)O)c4C(F)(F)F)n3)c(C)c2)CC1 [Example 2-5, 1-(6-(3-((2-Methyl-4-(1-propionylpiperidin-4-yl)phenoxy)methyl)thiophen-2-yl)pyridin-2-yl)-5-(trifluoromethyl)-1H-pyrazole-4-carboxylic acid] | 5.5 nM
9 | COC(=O)N1CCC(c2ccc(OCc3cc(C)sc3-c3cccc(-n4ncc(C(=O)O)c4C(F)(F)F)n3)c(C)c2)CC1 [Example 3, 1-(6-(3-((4-(1-(Methoxycarbonyl)piperidin-4-yl)-2-methylphenoxy)methyl)-5-methylthiophen-2-yl)pyridin-2-yl)-5-(trifluoromethyl)-1H-pyrazole-4-carboxylic acid] | 1.4 nM
10 | Cc1cc(COc2ccc(C3CCN(C(=O)C4CC4)CC3)cc2C)c(-c2cccc(-n3ncc(C(=O)O)c3C(F)(F)F)n2)s1 [Example 5, 1-(6-(3-((4-(1-(Cyclopropanecarbonyl)piperidin-4-yl)-2-methylphenoxy)methyl)-5-methylthiophen-2-yl)pyridin-2-yl)-5-(trifluoromethyl)-1H-pyrazole-4-carboxylic acid] | ≤ 0.5 nM

Other lines, results leading:

Row | EC50 | SMILES
11 | 6.9 nM | Cc1cc(C2CCN(C(=O)C3CCOC3)CC2)ccc1OCc1ccsc1-c1cccc(-n2ncc(C(=O)O)c2C(F)(F)F)n1 (racemic) [Example 12-3, (±)-1-(6-(3-((2-Methyl-4-(1-(tetrahydrofuran-3-carbonyl)piperidin-4-yl)phenoxy)methyl)thiophen-2-yl)pyridin-2-yl)-5-(trifluoromethyl)-1H-pyrazole-4-carboxylic acid]
12 | 48 nM | Cc1cc(C2CCN(C(=O)C3COC(C)(C)O3)CC2)ccc1OCc1ccsc1-c1cccc(-n2ncc(C(=O)O)c2C(F)(F)F)n1 (racemic) [Example 12-6, (±)-1-(6-(3-((4-(1-(2,2-Dimethyl-1,3-dioxolane-4-carbonyl)piperidin-4-yl)-2-methylphenoxy)methyl)thiophen-2-yl)pyridin-2-yl)-5-(trifluoromethyl)-1H-pyrazole-4-carboxylic acid]
13 | 160 nM | Cc1cc(COc2ccc(C3CCN(C(=O)C4CC4)CC3O)cc2)c(-c2cccc(-n3ncc(C(=O)O)c3C(F)(F)F)n2)s1 (racemic) [Example 35-11, (±)-trans-1-(6-(3-((4-(1-(Cyclopropanecarbonyl)-3-hydroxypiperidin-4-yl)phenoxy)methyl)-5-methylthiophen-2-yl)pyridin-2-yl)-5-(trifluoromethyl)-1H-pyrazole-4-carboxylic acid]
14 | 91 nM | Cc1cc(COc2ccc([C@@H]3CCN(C(=O)C4CC4)C[C@H]3O)cc2)c(-c2cccc(-n3ncc(C(=O)O)c3C(F)(F)F)n2)s1 (single isomer, unassigned) [Example 35-6, (+)-trans-1-(6-(3-((4-((3,4)-1-(cyclopropanecarbonyl)-3-hydroxypiperidin-4-yl)phenoxy)methyl)-5-methylthiophen-2-yl)pyridin-2-yl)-5-(trifluoromethyl)-1H-pyrazole-4-carboxylic acid]
15 | 2 nM | CCC(=O)N1CCC(c2cc(C)c(OCc3ccsc3-c3cccc(-n4ncc(C(=O)O)c4C(F)(F)F)n3)c(C)c2)CC1 [Example 4-1]
16 | 3 nM | CCC(=O)N1CCC(c2ccc(OCc3cc(C)sc3-c3cccc(-n4ncc(C(=O)O)c4C(F)(F)F)n3)cc2)CC1 [Example 4-2, 1-(6-(5-Methyl-3-((4-(1-propionylpiperidin-4-yl)phenoxy)methyl)thiophen-2-yl)pyridin-2-yl)-5-(trifluoromethyl)-1H-pyrazole-4-carboxylic acid]
17 | 5.5 nM | CCc1cc(COc2ccc(C3CCN(C(=O)OC)CC3)cc2C)c(-c2cccc(-n3ncc(C(=O)O)c3C(F)(F)F)n2)s1 [Example 4-3, 1-(6-(5-Ethyl-3-((4-(1-(methoxycarbonyl)piperidin-4-yl)-2-methylphenoxy)methyl)thiophen-2-yl)pyridin-2-yl)-5-(trifluoromethyl)-1H-pyrazole-4-carboxylic acid]
18 | ≤ 0.5 nM | Cc1cc(C2CCN(C(=O)C3CC3)CC2)ccc1OCc1c(C)csc1-c1cccc(-n2ncc(C(=O)O)c2C(F)(F)F)n1 [Example 4-4, 1-(6-(3-((4-(1-(Cyclopropanecarbonyl)piperidin-4-yl)-2-methylphenoxy)methyl)-4-methylthiophen-2-yl)pyridin-2-yl)-5-(trifluoromethyl)-1H-pyrazole-4-carboxylic acid]
